Organism: Rattus norvegicus
Assay: Open TG-GATES - Regimen: Daily Repeat
Type: toxicity, organism-based, Sprague-Dawley
Set-up: regimen Daily Repeat, gender Male, age 6 weeks
Details: in vivo, po, route gavage; for ALT / AST / BUN / CRE / Ca / Cl / DBIL / GLC / IP / K / LDH / Na / PL / RALB / TBIL / TC / TG / TP / gamma-GTP / A/G / ALP: tissue Plasma; for APTT / Bas / Eos / Fbg / Hb / Ht / Lym / MCH / MCHC / MCV / Mono / Neu / PT / Plat / RBC / Ret / WBC: tissue Blood; for KIDNEY_L / KIDNEY_R / KIDNEY_TOTAL: tissue Kidney; for LIVER: tissue Liver
[1] = 30 mg/kg, […], dose level Low, time 14 day
[2] = 30 mg/kg, […], dose level Low, time 28 day
[3] = 100 mg/kg, 72 h, dose level Middle, time 3 day
[4] = 100 mg/kg, […], dose level Middle, time 7 day
[5] = 100 mg/kg, […], dose level Middle, time 14 day
[6] = 100 mg/kg, […], dose level Middle, time 28 day

## CCc1cc(C(N)=S)ccn1 [ETHIONAMIDE]
[1]
  ALT: 34.8 IU/L
  AST: 62.4 IU/L
  BUN: 17.6 mg/dL
  CRE: 0.5 mg/dL
  Ca: 10.8 mg/dL
  Cl: 104.4 meq/L
  DBIL: 0.026 mg/dL
  GLC: 206.6 mg/dL
  IP: 7.2 mg/dL
  K: 4.4 meq/L
  LDH: 95.4 IU/L
  Na: 142.2 meq/L
  PL: 152.2 mg/dL
  RALB: 4.1 g/dL
  TBIL: 0.3 mg/dL
  TC: 70.4 mg/dL
  TG: 107.6 mg/dL
  TP: 5.9 g/dL
  gamma-GTP: 1.8 IU/L
[2]
  A/G: 2.2
  ALP: 680.6 IU/L
  ALT: 35.8 IU/L
  AST: 60 IU/L
  BUN: 21.2 mg/dL
  CRE: 0.7 mg/dL
  Ca: 10.1 mg/dL
  Cl: 106 meq/L
  DBIL: 0.022 mg/dL
  GLC: 198.8 mg/dL
  IP: 6.3 mg/dL
  K: 4.6 meq/L
  LDH: 95.2 IU/L
  Na: 140.4 meq/L
  PL: 143.8 mg/dL
  RALB: 4.1 g/dL
  TBIL: 0.3 mg/dL
  TC: 71.4 mg/dL
  TG: 129 mg/dL
  TP: 6 g/dL
  gamma-GTP: 1.6 IU/L
[3]
  TERMINAL_BW: 233.1 g
  APTT: 17.5 s
  Bas: 0%
  Eos: 1%
  Fbg: 209 mg/dL
  Hb: 14.5 g/dL
  Ht: 42.6%
  Lym: 67%
  MCH: 21.7 pg
  MCHC: 33.9%
  MCV: 64 fL
  Mono: 10.8%
  Neu: 21.6%
  PT: 11.6 s
  Plat: 130 x10_4/uL
  RBC: 666.2 x10_4/ul
  Ret: 10.3%
  WBC: 119.1 x10_2/uL
  KIDNEY_L: 1.1 g
  KIDNEY_R: 1.1 g
  KIDNEY_TOTAL: 2.2 g
  LIVER: 12.4 g
  A/G: 2
  ALP: 951.2 IU/L
  ALT: 41.6 IU/L
  AST: 65.6 IU/L
  BUN: 17.4 mg/dL
  CRE: 0.5 mg/dL
  Ca: 10.5 mg/dL
  Cl: 104.2 meq/L
  DBIL: 0.032 mg/dL
  GLC: 197.6 mg/dL
  IP: 7.1 mg/dL
  K: 4.7 meq/L
  LDH: 94.2 IU/L
  Na: 140.8 meq/L
  PL: 125 mg/dL
  RALB: 3.6 g/dL
  TBIL: 0.2 mg/dL
  TC: 65.4 mg/dL
  TG: 59.2 mg/dL
  TP: 5.4 g/dL
  gamma-GTP: 1 IU/L
[4]
  TERMINAL_BW: 267.6 g
  APTT: 17 s
  Bas: 0%
  Eos: 1%
  Fbg: 212 mg/dL
  Hb: 14.2 g/dL
  Ht: 42.3%
  Lym: 68.6%
  MCH: 20.9 pg
  MCHC: 33.7%
  MCV: 62.1 fL
  Mono: 8.6%
  Neu: 21.6%
  PT: 11.7 s
  Plat: 148.8 x10_4/uL
  RBC: 681.8 x10_4/ul
  Ret: 3.6%
  WBC: 136.5 x10_2/uL
  KIDNEY_L: 1.1 g
  KIDNEY_R: 1.2 g
  KIDNEY_TOTAL: 2.4 g
  LIVER: 13.1 g
  A/G: 1.8
  ALP: 899 IU/L
  ALT: 40.8 IU/L
[5]
  TERMINAL_BW: 316.7 g
  APTT: 17.7 s
  Bas: 0%
  Eos: 1.4%
  Fbg: 221 mg/dL
  Hb: 15.2 g/dL
  Ht: 44.6%
  Lym: 63.8%
  MCH: 21.4 pg
  MCHC: 34.2%
  MCV: 62.6 fL
  Mono: 4.4%
  Neu: 30.4%
  PT: 11.8 s
  Plat: 131.1 x10_4/uL
  RBC: 712 x10_4/ul
  Ret: 4.9%
  WBC: 203.6 x10_2/uL
  KIDNEY_L: 1.4 g
  KIDNEY_R: 1.4 g
  KIDNEY_TOTAL: 2.8 g
  LIVER: 16 g
[6]
  TERMINAL_BW: 405.2 g
  APTT: 16.9 s
  Bas: 0%
  Eos: 1.6%
  Fbg: 228.4 mg/dL
  Hb: 15.9 g/dL
  Ht: 46.2%
  Lym: 72.4%
  MCH: 20.4 pg
  MCHC: 34.4%
  MCV: 59.3 fL
  Mono: 4.8%
  Neu: 21.2%
  PT: 11.7 s
  Plat: 140.7 x10_4/uL
  RBC: 780.4 x10_4/ul
  Ret: 7.8%
  WBC: 170.4 x10_2/uL
  KIDNEY_L: 1.6 g
  KIDNEY_R: 1.6 g
  KIDNEY_TOTAL: 3.2 g
  LIVER: 18.7 g

Reference: ChEMBL document CHEMBL3885861, “Open TG-GATES”
